The values that follow come from patent US12600720B2, “Modulators of the integrated stress response pathway” (Evotec International GmbH, priority 2020, dated 2026).

The structures appear in SMILES notation.

The test deals with ATF4. Kind of test: HEK-ATF4 High Content Imaging assay (prevention of Tunicamycin induced ISR, ATF4 nucleus/cytoplasm signal ratio). Format: cell-based. The settings on record: Homo sapiens, wild-type HEK293 cells, 6 h incubation, ATF4 immunofluorescence. The procedure:
HEK-ATF4 High Content Imaging assay
Example compounds were tested in the HEK-ATF4 High Content Imaging assay to assess their pharmacological potency to prevent Tunicamycin induced ISR. Wild-type HEK293 cells were plated in 384-well imaging assay plates at a density of 12,000 cells per well in growth medium (containing DMEM/F12, 10% FBS, 2 mM L-Glutamine, 100 U/mL Penicillin—100 μg/mL Streptomycin) and incubated at 37° C., 5% CO2. 24 h later, the medium was changed to 50 μL assay medium per well (DMEM/F12, 0.3% FBS, 2 mM L-Glutamine, 100 U/mL Penicillin—100 μg/mL Streptomycin). Example compounds were serially diluted in DMSO, spotted into intermediate plates and prediluted with assay medium containing 3.3 μM Tunicamycin to give an 11-fold excess of final assay concentration. In addition to the example compound testing area, the plates also contained multiples of control wells for assay normalization purposes, wells containing Tunicamycin but no example compounds (High control), as well as wells containing neither example compound nor Tunicamycin (Low control). The assay was started by transferring 5 μL from the intermediate plate into the assay plates, followed by incubation for 6 h at 37° C., 5% CO2. Subsequently, cells were fixed (4% PFA in PBS, 20 min at r.t.) and submitted to indirect ATF4 immunofluorescence staining (primary antibody rabbit anti ATF4, clone D4B8, Cell Signaling Technologies; secondary antibody Alexa Fluor 488 goat anti-rabbit IgG (H+L), Thermofisher Scientific). Nuclei were stained using Hoechst dye (Thermofisher Scientific), and plates were imaged on an Opera Phenix High Content imaging platform equipped with 405 nm and 488 nm excitation. Finally, images were analyzed using script based algorithms. The main readout HEK-ATF4 monitored the ATF4 signal ratio between nucleus and cytoplasm. Tunicamycin induced an increase in the overall ATF4 ratio signal, which was prevented by ISR modulating example compounds. In addition, HEK-CellCount readout was derived from counting the number of stained nuclei corresponding to healthy cells. This readout served as an internal toxicity control.
As usually defined, the IC50 is the concentration that gives 50% inhibition. Regarding `O=C(COc1ccc(Cl)c(F)c1)N[C@H]1CC[C@H](c2nc3cccc(Cl)c3o2)NC1` [Example 10, N-[(3S,6R)-6-(7-chloro-1,3-benzoxazol-2-yl)piperidin-3-yl]-2-(4-chloro-3-fluorophenoxy)acetamide], the concentration for half-maximal inhibition (IC50) lay within 500 to 2000 nM. Consider `O=C(COc1ccc(Cl)c(F)c1)N[C@H]1CC[C@H](c2nc3ccc(OC(F)(F)F)cc3o2)NC1` [Example 12, 2-(4-chloro-3-fluorophenoxy)-N-[(3S,6R)-6-[6-(trifluoromethoxy)-1,3-benzoxazol-2-yl]piperidin-3-yl]acetamide], for which the half-inhibitory concentration (IC50) fell in the range of 1 to 500 nM.

As for `O=C(COc1ccc(Cl)c(F)c1)N[C@H]1CC[C@H](c2nc3ccc(Cl)cc3o2)NC1` [Example 2, N-[(3S,6R)-6-(6-chloro-1,3-benzoxazol-2-yl)piperidin-3-yl]-2-(4-chloro-3-fluorophenoxy)acetamide], the IC50 fell in the range of 500 to 2000 nM. Turning to `O=C(COc1ccc(Cl)c(F)c1)N[C@H]1CC[C@H](c2nc3c(Cl)cccc3o2)NC1` [Example 18, N-[(3S,6R)-6-(4-chloro-1,3-benzoxazol-2-yl)piperidin-3-yl]-2-(4-chloro-3-fluorophenoxy)acetamide], the IC50 lay within 2000 to 15000 nM. Consider `O=C(COc1ccc(Cl)c(F)c1)N[C@H]1CC[C@H](c2cn3cc(C(F)(F)F)ccc3n2)NC1` [Example 6, 2-(4-chloro-3-fluoro-phenoxy)-N-[(3S,6R)-6-[6-(trifluoromethyl)imidazo[1,2-a]pyridin-2-yl]-3-piperidyl]acetamide], for which the IC50 was in the range of 2000 to 15000 nM. Turning to `O=C(COc1ccc(Cl)c(F)c1)N[C@H]1CC[C@H](c2nc3ccc(C(F)(F)F)cc3o2)NC1` [Example 16, 2-(4-chloro-3-fluorophenoxy)-N-[(3S,6R)-6-[6-(trifluoromethyl)-1,3-benzoxazol-2-yl]piperidin-3-yl]acetamide], the 50% inhibitory concentration (IC50) fell in the range of 1 to 500 nM.

For the compound `O=C(COc1ccc(Cl)c(F)c1)N[C@H]1CC[C@H](c2cn3ccc(C(F)(F)F)cc3n2)NC1` [Example 8, 2-(4-chloro-3-fluoro-phenoxy)-N-[(3S,6R)-6-[7-(trifluoromethyl)imidazo[1,2-a]pyridin-2-yl]-3-piperidyl]acetamide], the IC50 lay within 2000 to 15000 nM. Under `O=C(COc1ccc(Cl)c(F)c1)N[C@H]1CC[C@H](c2nc3cc(Cl)ccc3o2)NC1` [Example 4, N-[(3S,6R)-6-(5-chloro-1,3-benzoxazol-2-yl)piperidin-3-yl]-2-(4-chloro-3-fluorophenoxy)acetamide] stands 2000 to 15000 nM. `O=C(COc1ccc(Cl)c(F)c1)N[C@H]1CC[C@H](c2nc3ccc(OC(F)F)cc3o2)NC1` [Example 14, 2-(4-chloro-3-fluorophenoxy)-N-[(3S,6R)-6-[6-(difluoromethoxy)-1,3-benzoxazol-2-yl]piperidin-3-yl]acetamide]: the IC50 lay in the range of 500 to 2000 nM.
